Earlier results, collected in PubChem BioAssay AID1259409 (Chemical Carcinogenesis Research Information System (CCRIS), 2018).

Tested on: rodent chemically induced tumor inhibition, incidence and multiplicity
Experiment: CCRIS tumor inhibitor studies
Conditions: Route [Inhibitor]: ORAL, Species: RAT, Promoter: NONE USED

O=[Se](O)O
tumour outcome (control, treated, inhibition, significance) (Carcinogen: 7,12-DIMETHYLBENZ[A]ANTHRACENE, 57-97-6, Dose [Inhibitor]: 5 PPM IN 25% CORN OIL DIET DAILY FOR 4 WK STARTING 2 WK BEFORE CARCINOGEN TREATMENT AND CONTINUING FOR 2 WK POST CARCINO, Strain/Sex: SPRAGUE-DAWLEY/FEMALE, Target Tissue: Type of Lesion: MAMMARY GLAND: ADENOCARCINOMA, Dose [Carcinogen]: 10 MG ONCE AT 50 D OF AGE): 97%, 72%, 26%, p<0.02 | tumour outcome (control, treated, inhibition, significance) (Carcinogen: 7,12-DIMETHYLBENZ[A]ANTHRACENE, 57-97-6, Dose [Inhibitor]: 5 PPM IN 25% CORN OIL DIET DAILY FOR 10 WK STARTING 2 WK AFTER CARCINOGEN TREATMENT (STUDY DURATION: 24 WK), Strain/Sex: SPRAGUE-DAWLEY/FEMALE, Target Tissue: Type of Lesion: MAMMARY GLAND: ADENOCARCINOMA, Dose [Carcinogen]: 10 MG ONCE AT 50 D OF AGE): 97%, 86%, 11%, not significant | tumour outcome (control, treated, inhibition, significance) (Carcinogen: 7,12-DIMETHYLBENZ[A]ANTHRACENE, 57-97-6, Dose [Inhibitor]: 5 PPM IN 25% CORN OIL DIET DAILY FOR 12 WK STARTING 12 WK AFTER CARCINOGEN TREATMENT (STUDY DURATION: 24 WK), Strain/Sex: SPRAGUE-DAWLEY/FEMALE, Target Tissue: Type of Lesion: MAMMARY GLAND: ADENOCARCINOMA, Dose [Carcinogen]: 10 MG ONCE AT 50 D OF AGE): 97%, 91%, 6%, not significant | tumour outcome (control, treated, inhibition, significance) (Carcinogen: 7,12-DIMETHYLBENZ[A]ANTHRACENE, 57-97-6, Dose [Inhibitor]: 5 PPM IN 25% CORN OIL DIET DAILY FOR 14 WK STARTING 2 WK BEFORE CARCINOGEN TREATMENT (STUDY DURATION: 26 WK), Strain/Sex: SPRAGUE-DAWLEY/FEMALE, Target Tissue: Type of Lesion: MAMMARY GLAND: ADENOCARCINOMA, Dose [Carcinogen]: 10 MG ONCE AT 50 D OF AGE): 97%, 57%, 41%, p<0.02 | tumour outcome (control, treated, inhibition, significance) (Carcinogen: 7,12-DIMETHYLBENZ[A]ANTHRACENE, 57-97-6, Dose [Inhibitor]: 5 PPM IN 25% CORN OIL DIET DAILY FOR 22 WK STARTING 2 WK AFTER CARCINOGEN TREATMENT AND CONTINUING FOR DURATION OF STUDY, Strain/Sex: SPRAGUE-DAWLEY/FEMALE, Target Tissue: Type of Lesion: MAMMARY GLAND: ADENOCARCINOMA, Dose [Carcinogen]: 10 MG ONCE AT 50 D OF AGE): 97%, 69%, 26%, p<0.02 | tumour outcome (control, treated, inhibition, significance) (Carcinogen: 7,12-DIMETHYLBENZ[A]ANTHRACENE, 57-97-6, Dose [Inhibitor]: 5 PPM IN 25% CORN OIL DIET DAILY FOR 26 WK STARTING 2 WK BEFORE CARCINOGEN TREATMENT AND CONTINUING FOR DURATION OF STUD, Strain/Sex: SPRAGUE-DAWLEY/FEMALE, Target Tissue: Type of Lesion: MAMMARY GLAND: ADENOCARCINOMA, Dose [Carcinogen]: 10 MG ONCE AT 50 D OF AGE): 97%, 46%, 53%, p<0.02 | tumour outcome (control, treated, inhibition, significance) (Carcinogen: AZOXYMETHANE, 25843-45-2, Dose [Inhibitor]: 0.5 PPM IN DIET BEGINNING 1 WK POST CARCINOGEN DOSE FOR DURATION OF STUDY (STUDY DURATION: 39 WK), Strain/Sex: F344/MALE, Target Tissue: Type of Lesion: COLON: ADENOCARCINOMA, Dose [Carcinogen]: 15 MG/KG BW 1/WK FOR 2 WK): 10/27 (37%), 9/27 (33%), 11%, not significant | tumour outcome (control, treated, inhibition, significance) (Carcinogen: AZOXYMETHANE, 25843-45-2, Dose [Inhibitor]: 0.5 PPM IN DIET BEGINNING 1 WK POST CARCINOGEN DOSE FOR DURATION OF STUDY (STUDY DURATION: 39 WK), Strain/Sex: F344/MALE, Target Tissue: Type of Lesion: COLON: ADENOMA, Dose [Carcinogen]: 15 MG/KG BW 1/WK FOR 2 WK): 16/27 (59%), 20/27 (74%), -25%, not significant | tumour outcome (control, treated, inhibition, significance) (Carcinogen: AZOXYMETHANE, 25843-45-2, Dose [Inhibitor]: 0.5 PPM IN DIET BEGINNING 1 WK POST CARCINOGEN DOSE FOR DURATION OF STUDY (STUDY DURATION: 39 WK), Strain/Sex: F344/MALE, Target Tissue: Type of Lesion: DUODENUM: ADENOCARCINOMA, Dose [Carcinogen]: 15 MG/KG BW 1/WK FOR 2 WK): 7/27 (26%), 7/27 (26%), 0%, not significant | tumour outcome (control, treated, inhibition, significance) (Carcinogen: AZOXYMETHANE, 25843-45-2, Dose [Inhibitor]: 0.5 PPM IN DIET BEGINNING 1 WK POST CARCINOGEN DOSE FOR DURATION OF STUDY (STUDY DURATION: 39 WK), Strain/Sex: F344/MALE, Target Tissue: Type of Lesion: DUODENUM: ADENOMA, Dose [Carcinogen]: 15 MG/KG BW 1/WK FOR 2 WK): 3/27 (11%), 4/27 (15%), -36%, not significant | tumour outcome (control, treated, inhibition, significance) (Carcinogen: AZOXYMETHANE, 25843-45-2, Dose [Inhibitor]: 0.5 PPM IN DIET BEGINNING 3 WK PRIOR TO CARCINOGEN DOSE AND CONTINUING FOR 1 WK POST CARCINOGEN DOSE (STUDY DURATION: 39, Strain/Sex: F344/MALE, Target Tissue: Type of Lesion: COLON: ADENOMA, Dose [Carcinogen]: 15 MG/KG BW 1/WK FOR 2 WK): 16/27 (59%), 16/27 (59%), 0%, not significant | tumour outcome (control, treated, inhibition, significance) (Carcinogen: AZOXYMETHANE, 25843-45-2, Dose [Inhibitor]: 0.5 PPM IN DIET BEGINNING 3 WK PRIOR TO CARCINOGEN DOSE AND CONTINUING FOR 1 WK POST CARCINOGEN DOSE (STUDY DURATION: 39, Strain/Sex: F344/MALE, Target Tissue: Type of Lesion: DUODENUM: ADENOCARCINOMA, Dose [Carcinogen]: 15 MG/KG BW 1/WK FOR 2 WK): 7/27 (26%), 7/27 (26%), 0%, not significant | tumour outcome (control, treated, inhibition, significance) (Carcinogen: AZOXYMETHANE, 25843-45-2, Dose [Inhibitor]: 0.5 PPM IN DIET BEGINNING 3 WK PRIOR TO CARCINOGEN DOSE AND CONTINUING FOR 1 WK POST CARCINOGEN DOSE (STUDY DURATION: 39, Strain/Sex: F344/MALE, Target Tissue: Type of Lesion: DUODENUM: ADENOMA, Dose [Carcinogen]: 15 MG/KG BW 1/WK FOR 2 WK): 3/27 (11%), 2/27 (7%), 36%, not calculated | tumour outcome (control, treated, inhibition, significance) (Carcinogen: AZOXYMETHANE, 25843-45-2, Dose [Inhibitor]: 2.5 PPM IN DIET BEGINNING 1 WK POST CARCINOGEN DOSE FOR DURATION OF STUDY (STUDY DURATION: 39 WK), Strain/Sex: F344/MALE, Target Tissue: Type of Lesion: COLON: ADENOCARCINOMA, Dose [Carcinogen]: 15 MG/KG BW 1/WK FOR 2 WK): 10/27 (37%), 1/27 (4%), 89%, p<0.05 | tumour outcome (control, treated, inhibition, significance) (Carcinogen: AZOXYMETHANE, 25843-45-2, Dose [Inhibitor]: 2.5 PPM IN DIET BEGINNING 1 WK POST CARCINOGEN DOSE FOR DURATION OF STUDY (STUDY DURATION: 39 WK), Strain/Sex: F344/MALE, Target Tissue: Type of Lesion: COLON: ADENOMA, Dose [Carcinogen]: 15 MG/KG BW 1/WK FOR 2 WK): 16/27 (59%), 12/27 (44%), 25%, not significant
